Measured values from patent US20260079084A1, “COMPOUND, EXTRACELLULAR VESICLE STAINING AGENT, AND FLUORESCENT STAINING METHOD FOR EXTRACELLULAR VESICLES” (National University Corporation Tokai National Higher …, priority 2022, published 2026).

Key:
[1] = system: milk-derived extracellular vesicles; test: Staining of milk-derived extracellular vesicles with heat treatment, gel filtration analysis (Example 11 / Comparative example 2); details: untreated vs 80° C. for 5 minutes or 15 minutes
Description: Experiments were performed in the same procedure as in Example 10 except that, after the staining agent was added to the extracellular vesicle preparation liquid in Example 10, the mixture was immediately analyzed with a column (untreated), the mixture was analyzed after treated at 80° C. for 5 minutes, or the mixture was analyzed after treated at 80° C. for 15 minutes. Note that the compounds used in the experiments of Example 11 are labeled with the GIF numbers in the graphs.
Experiments were performed in the same procedure as in Comparative example 1 except that, after the staining agent was added to the extracellular vesicle preparation liquid in Comparative example 1, the mixture was immediately analyzed with a column (untreated), the mixture was analyzed after treated at 80° C. for 5 minutes, or the mixture was analyzed after treated at 80° C. for 15 minutes.

[2] = system: milk-derived extracellular vesicles; test: Gel filtration comparison with compound of Patent Literature 1 (Example 17 / Comparative example 4); details: reaction time 3 hours at room temperature
Excerpt: The present applicant has disclosed GIF-2250 illustrated below in Patent Literature 1. GIF-2250 differs from the compounds of the present application in that the portion indicated by “→” is NH. First, the effect of this difference in structure provided on size separation using gel filtration was observed. Note that the synthesis procedure of GIF-2250 is disclosed in Patent Literature 1. The features disclosed in Patent Literature 1 are incorporated in the present specification by reference in its entirety.
Experiments were performed in the same procedure as in Example 10 except that GIF-2276 and GIF-2250 (Comparative example 4), which is disclosed in Patent Literature 1, were used and the reaction time was 3 hours at room temperature. FIG. 8 illustrates a graph in which respective experimental results are overlapped.

[3] = system: milk-derived extracellular vesicles; test: Staining of milk-derived extracellular vesicles, analysis by high-performance liquid chromatography gel filtration system (Example 10 / Comparative example 1); details: staining agent 1 μM, room temperature 12 hours
Description: Commercially available pasteurized milk (by Seki milk or Takanashi) of 1 L was centrifuged at 8000 rpm for 30 minutes, and the supernatant was filtrated by a coffee filter. Subsequently, acetic acid was added thereto to be 1%, and the mixture was further centrifuged at 8000 rpm for 30 minutes. The supernatant thereof was further filtrated by a coffee filter. The liquid obtained after the filtration was filtrated by a filter of 0.45 μm (by Sartorius), and the filtrate was filtrated by a filter of 0.1 μm (by Sartorius). Since extracellular vesicles remain on the filter of 0.1 μm, the extracellular vesicles were washed with 5 mL of phosphate buffer solution three times. Eventually, extracellular vesicles were collected with 1 mL of phosphate buffer solution. Further, 10 μL of the purified extracellular vesicle liquid was diluted with 40 μL of phosphate buffer solution (hereafter, referred to as “extracellular vesicle preparation liquid”)
Compounds 1 to 9 synthesized in Examples 1 to 9 were diluted with DMSO to produce a staining agent used in Example 10.
ExoSparkler Exosome Membrane Labeling Kit-Red (ExoSP Model No. EX02, by Dojin) was diluted with a DMSO solution in accordance with the instructions for use to produce a staining agent of Comparative example 1.
The staining agent produced in Example 10 was added to an extracellular vesicle preparation liquid so that the final concentration of the staining agent became 1 μM. Further, 1 μL of the staining agent produced in Comparative example 1 was added to an extracellular vesicle preparation liquid. In Example 10 and Comparative example 1, the staining agent was added to the extracellular vesicle preparation liquid and then allowed to stand at room temperature for 12 hours. After 12 hours elapsed, 10 μL of the reaction product was analyzed by a high-performance liquid chromatography gel filtration system. […] Detection was performed on ExoSP at 560 nm for excitation and 600 nm for fluorescence detection and was performed on the compounds synthesized in Examples 1 to 8 at 480 nm for excitation and 530 nm for fluorescence detection. […]

HEK293 cells [4] = test: Tracking of labeled milk-derived extracellular vesicles introduced into cells (Example 15); type: cell-based
Description: (§1) The milk-derived extracellular vesicles (exosomes) prepared in the procedure of Example 10 were stained with GIF-2276 at room temperature for 12 hours to label the extracellular vesicles. Unreacted GIF-2276 was removed by Microcon 300K (by Millipore). Lysosomes in HEK293 cells (ThermoFisher) were labeled with LysoBrite Red, and GIF-2276-labeled milk-derived extracellular vesicles were added thereto. After 3 hours, the mixture was observed by a microscope. FIG. 6 illustrates the result. The upper left “2276” in FIG. 6 is a fluorescent photograph of the extracellular vesicles labeled with GIF-2276. The upper right “LysoBright” in FIG. 6 is a fluorescent photograph of the lysosomes labeled with LysoBrite Red. The lower left in FIG. 6 is a photograph obtained by merging the fluorescent photograph of the extracellular vesicles labeled with GIF-2276 and the fluorescent photograph of the lysosomes labeled with LysoBrite Red. The lower right in FIG. 6 is a photograph of HEK293 cells captured in visible light.

HEK293 cells [5] = test: Tracking of labeled lactic acid bacteria (Yakult)-derived extracellular vesicles introduced into cells (Example 16); type: cell-based
Description: as §1
Experiments were performed in the same procedure as in Example 15 except that, instead of milk-derived extracellular vesicles, lactic acid bacteria (Yakult)-derived extracellular vesicles were used. FIG. 7 illustrates the result.

[6] = system: extracellular vesicles of pasteurized milk; test: Correlation between gel filtration and plate reader detection of extracellular vesicles (Example 17 (2))
Description: Patent Literature 1 discloses that the use of GIF-2250 enables quantification of extracellular vesicles by a plate reader. The correlation between detection of extracellular vesicles by a plate reader with the use of GIF-2250 and detection of extracellular vesicles by gel filtration with the use of GIF-2276 synthesized in Example 1 was examined.
Pasteurized milk (Takanashi) was heated at 60, 70, and 80° C. for 30 minutes and cooled back to room temperature. The extracellular vesicles were then prepared by the procedure described in Example 10, and the pasteurized milk was added thereto so that the final concentration of GIF-2276 synthesized in Example 1 became 1 μM to label the extracellular vesicles. The mixture was analyzed by a high-performance liquid chromatography gel filtration system to find the area of the peak. Extracellular vesicles prepared in the same manner reacted with 3 μM of GIF-2250 to find the fluorescence quantity by using a fluorescent plate reader. Respective values were plotted to find a correlation.

[7] = system: lactic acid bacteria (Yakult)-derived extracellular vesicles; test: Staining of lactic acid bacteria (Yakult)-derived extracellular vesicles, gel filtration analysis (Example 14 / Comparative example 3); details: staining agent 1 μM, room temperature 12 hours
Description: The staining agent produced in Example 10 was added to an extracellular vesicle preparation liquid so that the final concentration of the staining agent became 1 μM. Further, 1 μL of the staining agent produced in Comparative example 1 was added to an extracellular vesicle preparation liquid. In Example 10 and Comparative example 1, the staining agent was added to the extracellular vesicle preparation liquid and then allowed to stand at room temperature for 12 hours. After 12 hours elapsed, 10 μL of the reaction product was analyzed by a high-performance liquid chromatography gel filtration system. As the eluent for the column, 10 mM of Tris (pH 6.8), 0.25 mM of EDTA, and 50 mM of NaCl were used. Detection was performed on ExoSP at 560 nm for excitation and 600 nm for fluorescence detection and was performed on the compounds synthesized in Examples 1 to 8 at 480 nm for excitation and 530 nm for fluorescence detection. A column having 3 cm of Gen 2 qEV original/70 nm (by iZQN) and Shodex OHpak SB-807 (by Showa denko) connected to each other was used.
Next, experiments using various lactic fermenting beverages were performed. As the lactic fermenting beverage, A: Yakult (by Yakult), B: Onakayorokobu lactic acid bacteria (by Kurashimoa), and C: Pirkle (by Nissin Foods) were used. Each 500 mL of the lactic fermenting beverages of A to C listed above was centrifuged at 8000 rpm for 30 minutes, and the supernatant was filtrated by a coffee filter. The liquid obtained after the filtration was filtrated by a filter of 0.45 μm (by Sartorius), and the filtrate was filtrated by a filter of 0.033 μm (by GVS). Since extracellular vesicles remain on the filter of 0.033 μm, the extracellular vesicles were washed with 5 mL of phosphate buffer solution three times. Eventually, extracellular vesicles were collected with 1 mL of phosphate buffer solution. […]

SMILES: CN(C)c1ccc(CN(C)C2CCc3cc(OCCn4cc(CCOc5ccc([N+](=O)[O-])c6nonc56)nn4)ccc32)cc1 (stereo not shown) [GIF-2274]
- effect of heat treatment on fluorescence intensity [1]: significant increase in the fluorescence intensity due to heat treatment

SMILES: CN(C)c1ccc(CCCN(C)C2CCc3cc(OCCNc4ccc([N+](=O)[O-])c5nonc45)ccc32)cc1 (stereo not shown) [GIF-2250, reference compound]
- peak of milk-derived extracellular vesicles in gel filtration [2]: no peak of milk-derived extracellular vesicles was found

SMILES: CN(C)c1ccc(CCCN(C)C2CCc3cc(OCCOc4ccc([N+](=O)[O-])c5nonc45)ccc32)cc1 (stereo not shown) [GIF-2276]
- sensitivity order in staining of pasteurized milk extracellular vesicles [3]: highest in the order of GIF-2281, GIF-2280, and GIF-2276
- effect of heat treatment on fluorescence intensity [1]: significant increase in the fluorescence intensity due to heat treatment
- tracking of labeled extracellular vesicles in cells (HEK293 cells [4]; HEK293 cells, after 3 hours): can be tracked in the cells to which the same was introduced
- localization of signals of labeled extracellular vesicles in cells (HEK293 cells [4]; lysosomes labeled with LysoBrite Red, microscope after 3 hours): most of signals from extracellular vesicles are localized in the lysosomes
- tracking of labeled extracellular vesicles in cells (HEK293 cells [5]): can be tracked in the cells to which the same was introduced
- peak of milk-derived extracellular vesicles in gel filtration [2]: a clear peak due to the size of milk-derived extracellular vesicles was found
- quantification of extracellular vesicles by plate reader ([6]; depiction omitted): successfully quantified
- correlation of gel filtration peak area (GIF-2276) with plate reader fluorescence intensity (GIF-2250) ([6]; milk heated at 60, 70, 80° C. for 30 minutes, GIF-2276 1 μM, GIF-2250 3 μM): high correlation

SMILES: CN(C)c1ccc(CCCN(C)C2CCc3cc(OCCOCCOCCOCCOc4ccc([N+](=O)[O-])c5nonc45)ccc32)cc1 (stereo not shown) [GIF-2282]
- sensitivity order in staining of lactic acid bacteria extracellular vesicles [7]: highest in the order of GIF-2277, GIF-2281, and GIF-2282

SMILES: CN(C)c1ccc(CCCN(C)C2CCc3cc(OCCOCCOc4ccc([N+](=O)[O-])c5nonc45)ccc32)cc1 (stereo not shown) [GIF-2277]
- effect of heat treatment on fluorescence intensity [1]: significant increase in the fluorescence intensity due to heat treatment
- sensitivity order in staining of lactic acid bacteria extracellular vesicles [7]: highest in the order of GIF-2277, GIF-2281, and GIF-2282

SMILES: CN(CCCc1ccc(N(C)C)cc1)Cc1ccc(OCCOc2ccc([N+](=O)[O-])c3nonc23)cc1 [GIF-2281]
- sensitivity order in staining of pasteurized milk extracellular vesicles [3]: highest in the order of GIF-2281, GIF-2280, and GIF-2276
- sensitivity order in staining of lactic acid bacteria extracellular vesicles [7]: highest in the order of GIF-2277, GIF-2281, and GIF-2282

SMILES: CN(C)c1ccc(CCCN(C)C2CCc3cc(OCCCCCCOc4ccc([N+](=O)[O-])c5nonc45)ccc32)cc1 (stereo not shown) [GIF-2280]
- sensitivity order in staining of pasteurized milk extracellular vesicles [3]: highest in the order of GIF-2281, GIF-2280, and GIF-2276
